Results taken from patent publication US20250299796A1, “COMPOSITIONS AND METHODS FOR TREATING AND/OR CHARACTERIZING HEMATOLOGICAL MALIGNANCIES AND PRECURSOR CONDITIONS” (Dana-Farber Cancer Institute, Inc., priority 2021, published 2025).

Key:
[1] = tested on: patients with high-risk smoldering multiple myeloma (SMM); assay: Phase II trial (E-PRISM): safety and tolerability, adverse events graded by CTCAE v4.0; conditions: in vivo
Method: In the treatment schema a cycle is defined as 28 consecutive days. In cycles 1 and 2, 10 mg/kg of intravenous push Elotuzumab were administered on days 1, 8, 15, and 22. In cycles 3-4, it was administered on days 1 and 15. A 25 mg dose of oral Lenalidomide was administered on days 1-21 of each cycle. In Arm A, 40 mg of oral Dexamethasone were administered on days 1, 8, 15, and 22 in cycles 1 and 2 and on days 1, 8, and 15 in cycles 3-8. Patients on maintenance treatment (cycles 9-24) were administered 20 mg/kg of intravenous push Elotuzumab on day 1 and 15 mg oral Lenalidomide on days 1-21. All patients received thromboprophylaxis.
Toxicities were monitored throughout the study and for up to 30 days after the last dose of the study drug. Adverse events (AEs) were graded according to the National Cancer Institute Common Terminology Criteria for Adverse Events (CTCAE; version 4.0; Bethesda, MD). In addition, neuropathy symptoms were assessed using the FACT/GOG-Neuropathy questionnaire (Version 4.0). Efficacy was measured using the IWMG criteria for response^31.
Forty-nine patients experienced at least one toxicity while on study with worst grades of 1-mild (n=0), 2-moderate (n=11/51, 22%), and 3-severe (n=29/51, 57%), 4-life threatening (n=7/51, 14%), and 5-fatal (n=2/51, 4%). […]

[2] = tested on: immune system in patients with SMM; conditions: trial of Lenalidomide and Dexamethasone; cited from earlier work

Structure (SMILES): C[C@@H]1C[C@H]2[C@@H]3CCC4=CC(=O)C=C[C@]4(C)[C@@]3(F)[C@@H](O)C[C@]2(C)[C@@]1(O)C(=O)CO [Dexamethasone]
- Effect of Dexamethasone dose on type or frequency of treatment-related toxicities [1]: no effect
- Effect of once weekly high-dose Dexamethasone on the immune system [2]: does not have a detrimental effect
